From PubChem BioAssay AID256 (DTP/NCI, 2004)
Where “and” joins values, the source holds several entries; their conditions need not be identical. Identical values can stand only once. Toxic doses and inconclusive results are not listed. Residues, ends and D or L forms follow the SMILES beside them. *: point of attachment. Dnp = O=[N+]([O-])c1ccc(*)c([N+](=O)[O-])c1

Test system: CD2F1 mice, L1210 leukemia ip, survival T/C
Experiment: NCI In Vivo Anticancer Drug Screen. Data for tumor model L1210 Leukemia (intraperitoneal) in CD2F1 (CDF1) mice
Details: higher = longer survival
In short: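 Mice carrying a transplanted tumor received test compound or vehicle alone. The value is the measurement in the treated group divided by that in the vehicle-treated control group.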

[1] = endpoint: mean survival time, dose: 100.0 mg/kg/injection, schedule: Q04DX003 (ip), vehicle: saline with Tween-80
[2] = endpoint: mean survival time, dose: 200.0 mg/kg/injection, schedule: Q04DX003 (ip), vehicle: saline with Tween-80
[3] = endpoint: mean survival time, dose: 400.0 mg/kg/injection, schedule: Q04DX003 (ip), vehicle: saline with Tween-80
[4] = endpoint: mean survival time, dose: 100.0 mg/kg/injection, schedule: Q01DX009 (ip), vehicle: saline
[5] = endpoint: mean survival time, dose: 100.0 mg/kg/injection, schedule: Q04DX003 (ip), vehicle: saline
[6] = endpoint: mean survival time, dose: 50.0 mg/kg/injection, schedule: Q01DX009 (ip), vehicle: saline with Tween-80
[7] = endpoint: mean survival time, dose: 100.0 mg/kg/injection, schedule: Q01DX009 (ip), vehicle: saline with Tween-80
[8] = endpoint: mean survival time, dose: 200.0 mg/kg/injection, schedule: Q01DX009 (ip), vehicle: saline with Tween-80
[9] = endpoint: mean survival time, dose: 400.0 mg/kg/injection, schedule: Q01DX009 (ip), vehicle: saline with Tween-80

O=C(O)C(O)C(O)C(O)C(O)C(=O)O.[NH-]C1CCCCC1[NH-].[Pt+2] (stereo not drawn)
T/C (endpoint: median survival time, dose: 6.25 mg/kg/injection, schedule: Q04DX003 (ip), vehicle: saline): 116 % of control and 112 % of control | T/C (endpoint: median survival time, dose: 12.5 mg/kg/injection, schedule: Q04DX003 (ip), vehicle: saline): 121 % of control and 123 % of control | T/C (endpoint: median survival time, dose: 25.0 mg/kg/injection, schedule: Q04DX003 (ip), vehicle: saline): 123 % of control | T/C (endpoint: median survival time, dose: 50.0 mg/kg/injection, schedule: Q04DX003 (ip), vehicle: saline): 151 % of control and 152 % of control | T/C (endpoint: median survival time, dose: 100.0 mg/kg/injection, schedule: Q04DX003 (ip), vehicle: saline): 167 % of control and 187 % of control

CC(C)c1cc(C(C)C)nc(NNc2nc(C(C)C)cc(C(C)C)n2)n1
T/C [1]: 102 % of control | T/C [2]: 100 % of control | T/C [3]: 100 % of control

COc1ccc(NC(=O)Nc2ccccc2C(F)(F)F)cc1
T/C [1]: 98 % of control | T/C [2]: 96 % of control | T/C [3]: 90 % of control

C[C@H](N)C(=O)N[C@@H]1[C@H]2C(=C(O)C[C@@H](O)[C@@H]2O)C(=O)O[C@@H]1C
T/C (endpoint: mean survival time, dose: 100.0 mg/kg/injection, schedule: Q01DX007 (ip), vehicle: saline): 113 % of control | T/C [4]: 118 % of control | T/C (endpoint: mean survival time, dose: 100.0 mg/kg/injection, schedule: Q03DX003 (ip), vehicle: saline): 107 % of control | T/C [5]: 106 % of control | T/C (endpoint: mean survival time, dose: 200.0 mg/kg/injection, schedule: Q01DX007 (ip), vehicle: saline): 124 % of control | T/C (endpoint: mean survival time, dose: 200.0 mg/kg/injection, schedule: Q01DX009 (ip), vehicle: saline): 120 % of control | T/C (endpoint: mean survival time, dose: 200.0 mg/kg/injection, schedule: Q03DX003 (ip), vehicle: saline): 109 % of control | T/C (endpoint: mean survival time, dose: 200.0 mg/kg/injection, schedule: Q04DX003 (ip), vehicle: saline): 106 % of control | T/C (endpoint: mean survival time, dose: 400.0 mg/kg/injection, schedule: Q03DX003 (ip), vehicle: saline): 115 % of control | T/C (endpoint: mean survival time, dose: 400.0 mg/kg/injection, schedule: Q04DX003 (ip), vehicle: saline): 112 % of control | T/C (endpoint: median survival time, dose: 75.0 mg/kg/injection, schedule: Q01DX009 (ip), vehicle: saline): 103 % of control | T/C (endpoint: median survival time, dose: 150.0 mg/kg/injection, schedule: Q01DX009 (ip), vehicle: saline): 109 % of control | T/C (endpoint: median survival time, dose: 300.0 mg/kg/injection, schedule: Q01DX009 (ip), vehicle: saline): 119 % of control | T/C (endpoint: median survival time, dose: 1200.0 mg/kg/injection, schedule: Q01DX009 (ip), vehicle: saline): 150 % of control and 166 % of control | T/C (endpoint: median survival time, dose: 2400.0 mg/kg/injection, schedule: Q01DX009 (ip), vehicle: saline): 86 % of control

Cn1nc(NC(=O)C(F)(F)F)c2ncc(-c3ccccc3)nc21
T/C [1]: 91 % of control | T/C [2]: 87 % of control | T/C [3]: 91 % of control

Nc1ccc(Nc2ccccc2C(=O)O)cc1
T/C [6]: 95 % of control | T/C [7]: 103 % of control | T/C [1]: 105 % of control | T/C [2]: 97 % of control

CN1CCCC1CN1c2ccccc2Sc2ccccc21 (stereo not drawn)
T/C [5]: 102 % of control

C[Si](C)(C)Oc1cccc(O[Si](C)(C)C)c1
T/C [7]: 92 % of control | T/C [8]: 94 % of control | T/C [9]: 87 % of control

COc1cc(Cl)ccc1NC(=O)Oc1c(OC)cccc1OC
T/C [7]: 100 % of control | T/C [8]: 106 % of control | T/C [9]: 103 % of control

NCC(OC1CCCCC1)C(Cl)(Cl)Cl (stereo not drawn)
T/C [1]: 101 % of control | T/C [2]: 93 % of control

CC(C)(C)C1=CC(=C2C=C(C(C)(C)C)C(=O)C(C(C)(C)C)=C2)C=C(C(C)(C)C)C1=O
T/C (endpoint: mean survival time, dose: 75.0 mg/kg/injection, schedule: Q04DX003 (ip), vehicle: saline with Tween-80): 100 % of control | T/C [7]: 95 % of control | T/C (endpoint: mean survival time, dose: 150.0 mg/kg/injection, schedule: Q04DX003 (ip), vehicle: saline with Tween-80): 100 % of control | T/C [8]: 91 % of control | T/C (endpoint: mean survival time, dose: 300.0 mg/kg/injection, schedule: Q04DX003 (ip), vehicle: saline with Tween-80): 89 % of control | T/C [9]: 91 % of control

O=C(c1ccc(-c2ccccc2)cc1)C(Br)C(Br)c1ccccc1 (stereo not drawn)
T/C (endpoint: mean survival time, dose: 12.5 mg/kg/injection, schedule: Q01DX009 (ip), vehicle: water): 95 % of control | T/C (endpoint: mean survival time, dose: 50.0 mg/kg/injection, schedule: Q01DX009 (ip), vehicle: water): 90 % of control | T/C (endpoint: mean survival time, dose: 100.0 mg/kg/injection, schedule: Q01DX009 (ip), vehicle: water): 90 % of control | T/C (endpoint: mean survival time, dose: 200.0 mg/kg/injection, schedule: Q01DX009 (ip), vehicle: water): 102 % of control

CC(=O)NC1C(OC(C)=O)C(OC(C)=O)C(OC(C)=O)C(OC(C)=O)C1OC(C)=O (stereo not drawn)
T/C (endpoint: mean survival time, dose: 100.0 mg/kg/injection, schedule: Q01DX001 (ip), vehicle: saline with Tween-80): 97 % of control | T/C (endpoint: mean survival time, dose: 200.0 mg/kg/injection, schedule: Q01DX001 (ip), vehicle: saline with Tween-80): 93 % of control | T/C (endpoint: mean survival time, dose: 400.0 mg/kg/injection, schedule: Q01DX001 (ip), vehicle: saline with Tween-80): 93 % of control

O=C(CCCCl)CC(O)(C(F)(F)Cl)C(F)(F)Cl
T/C (endpoint: mean survival time, dose: 25.0 mg/kg/injection, schedule: Q01DX009 (ip), vehicle: saline): 94 % of control | T/C (endpoint: mean survival time, dose: 50.0 mg/kg/injection, schedule: Q01DX009 (ip), vehicle: saline): 100 % of control | T/C [4]: 94 % of control

CC(=O)Oc1ccc(C(=O)O)cc1
T/C (endpoint: mean survival time, dose: 50.0 mg/kg/injection, schedule: Q01DX009 (ip), vehicle: Klucel (hydroxypropylcellulose) (HPC)): 91 % of control | T/C (endpoint: mean survival time, dose: 100.0 mg/kg/injection, schedule: Q01DX009 (ip), vehicle: Klucel (hydroxypropylcellulose) (HPC)): 98 % of control

COc1cc(C=C(C(C)=O)C(C)=O)ccc1O
T/C [6]: 98 % of control | T/C [7]: 101 % of control | T/C [8]: 98 % of control

Cc1cc[n+]([O-])c(N(C(=O)c2ccccc2)C(=O)c2ccccc2)c1
T/C [7]: 98 % of control | T/C [1]: 95 % of control | T/C [8]: 102 % of control | T/C [2]: 103 % of control | T/C [9]: 107 % of control | T/C [3]: 97 % of control

CCCCCCCCCCCc1n(Cc2ccccc2)c2ccccc2[n+]1C
T/C (endpoint: mean survival time, dose: 0.25 mg/kg/injection, schedule: Q01DX009 (ip), vehicle: saline): 117 % of control | T/C (endpoint: mean survival time, dose: 0.25 mg/kg/injection, schedule: Q04DX003 (ip), vehicle: saline): 102 % of control | T/C (endpoint: mean survival time, dose: 0.5 mg/kg/injection, schedule: Q01DX009 (ip), vehicle: saline): 110 % of control | T/C (endpoint: mean survival time, dose: 0.5 mg/kg/injection, schedule: Q04DX003 (ip), vehicle: saline): 104 % of control | T/C (endpoint: mean survival time, dose: 1.0 mg/kg/injection, schedule: Q01DX009 (ip), vehicle: saline): 121 % of control | T/C (endpoint: mean survival time, dose: 1.0 mg/kg/injection, schedule: Q04DX003 (ip), vehicle: saline): 106 % of control

NCC(=O)NC(CSc1ccc([N+](=O)[O-])cc1[N+](=O)[O-])C(=O)NC(CCC(=O)O)C(=O)O (stereo not drawn) (H-Gly-Cys(Dnp)-Glu-OH; configuration not given here)
T/C [1]: 103 % of control | T/C [2]: 101 % of control | T/C [3]: 98 % of control
